# In ChEMBL document CHEMBL1201862, “PubChem BioAssay data set” (2004):
#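 Five compound concentrations were applied to cells in 96-well plates for 48 hours; endpoints were derived by simple linear interpolation of the resulting dose-response curve. At the GI50, growth is halved.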 The source made the active and inactive calls. Rule as the data show it: active = GI50 up to about 1.1 µM and inactive = higher.
# Columns and labels:
# Assay in all cases: DTP human tumour cell line panel, 48 h
# [1] = test system: NCI-H522
# [2] = test system: UACC-62
# [3] = test system: SF-295
# [4] = test system: HOP-62
# [5] = test system: HCT-116
# [6] = test system: HOP-92
# [7] = test system: CAKI-1
# [8] = test system: EKVX
# [9] = test system: Malme-3M
# [10] = test system: RXF 393
# [11] = test system: RPMI-8226
# [12] = test system: NCI-H226
# [13] = test system: UACC-257
# [14] = test system: SF-539
# [15] = test system: SF-268
# [16] = test system: A498
# [17] = test system: UO-31
# [18] = test system: SNB-75
# [19] = test system: SK-MEL-2
# [20] = test system: SN12C
# [21] = test system: OVCAR-3
# [22] = test system: PC-3
# [23] = test system: MCF7
# [24] = test system: SK-OV-3
# [25] = test system: Hs-578T
# [26] = test system: U-251
# [27] = test system: COLO 205
# [28] = test system: SW-620
# [29] = test system: SK-MEL-28
# [30] = test system: 786-0
# [31] = test system: SNB-19
# [32] = test system: T47D
# [33] = test system: A549
# [34] = test system: IGROV-1
# [35] = test system: MDA-MB-231
# [36] = test system: M14
# [37] = test system: OVCAR-5
# [38] = test system: HCC 2998
# [39] = test system: TK-10
# [40] = test system: MOLT-4
# [41] = test system: OVCAR-8
# [42] = test system: LOX IMVI
# [43] = test system: OVCAR-4
# [44] = test system: HL-60
# [45] = test system: HCT-15
# [46] = test system: NCI-H23
# [47] = test system: NCI-H460
# [48] = test system: CCRF-CEM
# [49] = test system: MDA-MB-435
# [50] = test system: NCI/ADR-RES
# [51] = test system: DU-145
# [52] = test system: MDA-N
# [53] = test system: BT-549
# [54] = test system: KM12
# [55] = test system: ACHN
# [56] = test system: HT-29
smiles,measurement,setting,value
CCOC(=O)/C=C\c1c(Cl)n(-c2ccccc2)c(=O)n(-c2ccccc2)c1=O,GI50,[1],18.1 µM (inactive)
same,GI50,[2],18.3 µM (inactive)
same,GI50,[3],21.9 µM (inactive)
same,GI50,[4],20.8 µM (inactive)
same,GI50,[5],23.8 µM (inactive)
same,GI50,[6],15.8 µM (inactive)
same,GI50,[7],19.5 µM (inactive)
same,GI50,[8],21 µM (inactive)
same,GI50,[9],24.5 µM (inactive)
same,GI50,[10],17.9 µM (inactive)
same,GI50,[11],> 10 µM (inactive)
same,GI50,[12],20.7 µM (inactive)
same,GI50,[13],18.6 µM (inactive)
same,GI50,[14],17.2 µM (inactive)
same,GI50,[15],20.7 µM (inactive)
same,GI50,[16],21.3 µM (inactive)
same,GI50,[17],18.8 µM (inactive)
same,GI50,[18],14.9 µM (inactive)
same,GI50,[19],17.7 µM (inactive)
same,GI50,[20],19.6 µM (inactive)
same,GI50,[21],19.3 µM (inactive)
same,GI50,[22],18.7 µM (inactive)
same,GI50,[23],22.6 µM (inactive)
same,GI50,[24],22.2 µM (inactive)
same,GI50,[25],27.3 µM (inactive)
same,GI50,[26],32 µM (inactive)
same,GI50,[27],18.5 µM (inactive)
same,GI50,[28],23.8 µM (inactive)
same,GI50,[29],18.9 µM (inactive)
same,GI50,[30],20.3 µM (inactive)
same,GI50,[31],16 µM (inactive)
same,GI50,[32],20.2 µM (inactive)
same,GI50,[33],25.1 µM (inactive)
same,GI50,[34],17.6 µM (inactive)
same,GI50,[35],21.2 µM (inactive)
same,GI50,[36],18.7 µM (inactive)
same,GI50,[37],20.6 µM (inactive)
same,GI50,[38],18.5 µM (inactive)
same,GI50,[39],18.1 µM (inactive)
same,GI50,[40],38.5 µM (inactive)
same,GI50,[41],17.4 µM (inactive)
same,GI50,[42],22.6 µM (inactive)
same,GI50,[43],30 µM (inactive)
same,GI50,[44],4.63 µM (inactive)
same,GI50,[45],19.8 µM
same,GI50,[46],21.7 µM (inactive)
same,GI50,[47],18 µM (inactive)
same,GI50,[48],21.9 µM (inactive)
same,GI50,[49],22.1 µM (inactive)
same,GI50,[50],26.5 µM (inactive)
same,GI50,[51],18.8 µM (inactive)
same,GI50,[52],17 µM (inactive)
same,GI50,[53],20.2 µM (inactive)
same,GI50,[54],19.1 µM (inactive)
same,GI50,[55],20.7 µM (inactive)
same,GI50,[56],19 µM (inactive)
